# Measured values taken from patent US12570607B2, “Compound as cyclin-dependent kinase 9 inhibitor and use thereof” (CSPC Zhongqi Pharmaceutical Technology (Shijiazhuang) Co., …, priority 2019, dated 2026).
# Tests used:
# MV4;11 cells = assay: In vitro MV4;11 cell proliferation inhibition (MTT method); type: cell-based; conditions: Homo sapiens
# From the text: The in vitro inhibitory effect of the synthesized compounds on cell proliferation was investigated.
# The trade name of MTT was thiazole blue, which was a tetrazolium salt of a dye that could accept hydrogen atoms. […] Dimethyl sulfoxide could dissolve blue-purple complexes in cells, and its light absorption value could be measured at 490-550 nm wavelength with an enzyme-linked immunosorbent detector, which could indirectly reflect the number of cells. Within a certain range of the cell number, the amount of MTT crystals formed was proportional to the number of cells. The drug to be tested was successively diluted to different concentrations and added to a 96-well plate. The OD value was determined after the drug acted for a certain time. The size of the OD value could reflect the number of living cells, and its IC50 value was calculated with SPSS19.0.
# Suspension of cells: Cells were […] by centrifugation and counted. A certain density of cell suspension was formulated with a complete culture medium, blown evenly, inoculated on a 96-well plate, 100 μL per well, and then cultured in a CO2 incubator.
# An appropriate amount of the drug was added to a calculated amount of DMSO and dissolved. The resulting mixture was dispensed and stored at −20° C. The formulation concentration was 10 mM.
# The stock solution of the compound having a concentration of 10 mM was diluted into different concentrations (8 concentrations) of solutions of the compound in DMSO (3-fold dilution, 20×final concentration). Each concentration of solutions (10 μL) of the compound in DMSO was respectively diluted with cell culture media (90 μL) to formulate working solutions (2×final concentration). Each concentration of working solutions (100 μL) of the compound was added to the 96-well plate inoculated with cells (1×final concentration, the highest final concentration is 1000 nM). The resulting plate continued to be cultured in a CO2 incubator.
# The 96-well plate was taken out, and the density of cells was observed under a microscope. The test was performed with the MTT method.
# MTT method: 20 μL of MTT was added to each well; the plate was cultured for about 4 hours in the incubator; the liquid in the well was discarded; 150 μL of DMSO was added into each well; the plate was placed in a shaker and shaken for 5-10 minutes, and the test was performed with a microplate reader at a wavelength of 550 nm. 7. Data analysis: IC50 value of the drug was calculated with SPSS19.0 statistical software.
# hERG channel = hERG channel (Homo sapiens (Human), UniProt Q12809); assay: In vitro hERG inhibitory activity, whole-cell patch-clamp on CHO-K1 cell line stably expressing the hERG channel
# From the text: Rapid delayed rectifier current (IKr) was mainly mediated by the hERG ion channel and involved in human cardiomyocyte repolarization. Inhibition of IKr was the leading cause of the clinical QT interval prolongation syndrome, even acute cardiac dysrhythmia, and even sudden death. By utilizing a whole-cell patch-clamp technology, the blocking effect of a compound on the hERG channel was detected on a CHO-K1 cell line stably expressing the hERG channel, and the half inhibition concentration IC50 of the compound was determined. It was used as a part of the comprehensive cardiac safety assessment, and it was initially evaluated in the safety in vitro screen for cardiotoxicity.
# This assay included the following aspects: • The hERG current was recorded on the CHO-K1 cell line stably expressing the hERG channel by utilizing the manual patch-clamp technology; • The inhibition rate at each concentration was calculated according to the hERG tail current; • The measurement was performed at 5 concentrations for each compound to calculate the IC50 value; • 3 cells were tested at each concentration; • One positive control drug was provided.
# The hERG current was recorded by utilizing a whole-cell patch-clamp technology. The cell suspension was added to a dish, and the dish was placed on the object stage of an upright microscope. After adhesion of the cells, perfusion was performed with an extracellular fluid at a flow rate of […]. A glass microelectrode was pulled with a microelectrode puller via a two-step process and the pipette rip resistance was between 2-5 MΩ. After the whole-cell record was set up, the clamp potential was held at −80 mV. The cells were depolarized to +60 mV by applying a voltage stimulus and then repolarized to −50 mV to elicit the hERG tail current. All recordation was conducted after the current became stable. The extracellular perfusion administration was started from the lowest concentration, staying for 5-10 min at each concentration until the current was stable, and then conducted with the next concentration.
# [1] = test system: human acute myelocytic leukemia MV4;11 cell subcutaneous xenograft tumor; assay: In vivo antitumor activity in MV4;11 cell subcutaneous xenograft tumor model; parameters: species or system NOD-SCID mice; conditions: MV4;11 xenograft, p.o.
# Method: Cell culture: IMDM culture medium containing 10% fetal bovine serum (FBS), 37° C., 5% CO2.
# (§1) NOD-SCID mice, female, 6-8 weeks(18-22 g), each mouse was subcutaneously inoculated with 0.1 mL (1×10^8) MV4;11 cells on the right back of each mouse. When the average tumor volume reached 150 mm^3, drug administration was started. The tumor volume was measured twice a week, and the volume was calculated in cubic millimeters. When the average tumor volume in the vehicle group reached more than 800 mm^3, the administration was terminated to compare the difference in the average tumor volume between the compound groups and the vehicle group. The antitumor efficacy of the compounds was evaluated by TGI (%). TGI (%) reflected the tumor growth inhibition rate.
# [2] = test system: human acute promyelocytic leukemia HL-60 cell subcutaneous xenograft tumor; assay: In vivo antitumor activity in HL-60 cell subcutaneous xenograft tumor model; parameters: species or system Nu/Nu mice; conditions: HL-60 xenograft, qd, p.o., 5 mg/Kg, 9 days
# Method: as §1, with “Cell culture: IMDM culture medium containing 20% fetal bovine serum (FBS), 37° C., 5% CO2; Nu/Nu” for “NOD-SCID”, “weeks (18-22” for “weeks(18-22”, “of HL-60 cell suspension (containing about 1×10^7 cells) in the axillary region of” for “(1×10^8) MV4;11 cells on”, “forelimb.” for “back of each mouse.”, “2-3 times per” for “twice a”, “group” for “groups”
# Sequence of hERG channel (Q12809 whole entry): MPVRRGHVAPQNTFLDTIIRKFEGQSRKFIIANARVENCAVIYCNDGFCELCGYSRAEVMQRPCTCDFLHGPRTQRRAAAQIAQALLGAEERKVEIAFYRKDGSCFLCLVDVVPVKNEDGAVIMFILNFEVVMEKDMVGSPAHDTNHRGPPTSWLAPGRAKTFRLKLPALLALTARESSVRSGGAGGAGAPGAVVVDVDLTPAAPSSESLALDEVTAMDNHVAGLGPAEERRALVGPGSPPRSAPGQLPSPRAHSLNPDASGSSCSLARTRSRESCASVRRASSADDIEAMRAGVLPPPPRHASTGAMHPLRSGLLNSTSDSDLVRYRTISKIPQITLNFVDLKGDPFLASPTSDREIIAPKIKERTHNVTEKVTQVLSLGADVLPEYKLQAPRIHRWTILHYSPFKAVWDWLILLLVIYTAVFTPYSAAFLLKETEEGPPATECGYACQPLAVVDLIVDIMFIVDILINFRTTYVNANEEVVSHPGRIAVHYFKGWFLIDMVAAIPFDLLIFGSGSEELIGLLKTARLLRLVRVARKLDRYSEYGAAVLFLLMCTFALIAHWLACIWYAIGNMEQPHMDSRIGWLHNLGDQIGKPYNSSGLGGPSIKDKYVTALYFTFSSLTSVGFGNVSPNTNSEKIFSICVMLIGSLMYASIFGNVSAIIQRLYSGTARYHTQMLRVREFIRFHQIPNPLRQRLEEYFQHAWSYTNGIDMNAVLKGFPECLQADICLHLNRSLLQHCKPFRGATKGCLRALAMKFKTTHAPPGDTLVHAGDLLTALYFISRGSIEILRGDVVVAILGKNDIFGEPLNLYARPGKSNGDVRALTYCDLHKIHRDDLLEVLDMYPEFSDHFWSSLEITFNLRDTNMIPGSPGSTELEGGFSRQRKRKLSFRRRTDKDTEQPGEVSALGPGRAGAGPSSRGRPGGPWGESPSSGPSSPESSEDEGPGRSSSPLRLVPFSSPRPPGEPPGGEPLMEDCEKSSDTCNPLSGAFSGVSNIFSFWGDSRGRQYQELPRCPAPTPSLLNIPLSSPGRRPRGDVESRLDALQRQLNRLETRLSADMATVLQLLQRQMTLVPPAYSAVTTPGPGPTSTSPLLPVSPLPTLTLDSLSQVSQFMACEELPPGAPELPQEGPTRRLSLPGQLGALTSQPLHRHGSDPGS
smiles,measurement,setting,value
COc1cc(F)c(F)cc1-c1cc(NC(=O)[C@H]2CCC[C@@H](NC(=O)CO)C2)ncc1F [Compound 68],IC50,MV4;11 cells,50 nM
same,IC50,hERG channel,> 30000 nM
same,TGI(%),"[1]; qd, 5 mg/Kg, 7 days",78.1%
same,TGI(%),[2],90.2%
COc1cc(F)ccc1-c1cc(NC(=O)[C@H]2CCC[C@@H](NC(=O)C3(C#N)CC3)C2)ncc1F [Compound 33],IC50,MV4;11 cells,17 nM
same,IC50,hERG channel,> 30000 nM
same,TGI(%),"[1]; qd, 5 mg/Kg, 9 days",56.9%
COc1cc(F)ccc1-c1cc(NC(=O)[C@H]2CCC[C@@H](NC(=O)CO)C2)ncc1F [Compound 45],IC50,MV4;11 cells,34 nM
same,IC50,hERG channel,> 30000 nM
same,TGI(%),"[1]; qd, 5 mg/Kg, 16 days",62.9%
same,TGI(%),[2],58.0%
COc1cc(F)c(F)cc1-c1cc(NC(=O)[C@H]2CCC[C@@H](NC(=O)C3(C#N)CC3)C2)ncc1F [Compound 67],IC50,MV4;11 cells,67 nM
same,TGI(%),"[1]; qd, 5 mg/Kg, 9 days",67.8%
same,TGI(%),[2],67.8%
COc1cc(F)ccc1-c1ccnc(NC(=O)[C@H]2CCC[C@@H](NC(C)=O)C2)c1,TGI(%),"[1]; q2d, 20 mg/Kg, 9 days",51.5%
COc1cc(F)ccc1-c1cc(NC(=O)[C@H]2CCC[C@@H](NC(C)=O)C2)ncc1F [Compound 5],IC50,MV4;11 cells,37 nM
same,IC50,hERG channel,> 30000 nM
same,TGI(%),"[1]; q2d, 20 mg/Kg, 9 days",98.5%
